Measured values from patent publication US12060336B1, “(2E)-4-[(4-chlorophenyl)amino]-N-phenyl-2-(phenylimino)-1,3,5-dioxazepine-7-carboxamide as an eco-friendly insecticidal agent against Spodoptera littoralis (boisd.)” (King Faisal University, priority 2023, dated 2024).
In brackets after ≈: the same amount, converted by molar mass. Where two headings read alike, the source gives them in different places.

Legend:
[1] = system: Spodoptera littoralis larvae; experiment: Insecticidal leaf dip bioassay screening; settings: for Toxicity index %: 72 hours, fenoxycarb's LC50/compound's LC50 * 100; for LC50: Spodoptera littoralis, foliar, 72 h
Experimental: Five concentrations (200, 100, 50, 25, 12.5 ppm) were designed for this synthetic compound and the reference fenoxycarb's compound as the dynamic ingredients based on ppm via diluting the commercial formulation.
In this experiment, the synthetic compound was tested for its insecticidal bioactivity using the industry-standard leaf dip bioassay techniques. Preparation of the compound stocks to create 1000 ppm, 0.1 g of compounds 2 were dissolved in five mL of Dimethyl formamide & combined with 5 mL of distilled water. Until usage, the stocks were kept in a refrigerator. The target substance test results were noted & the concentrations needed to destroy 50% (LC50) of S. littoralis larvae were calculated. The target compound was employed in five different concentrations, & 0.1% Tween 80 was employed as a surfactant. Castor bean leaf discs (nine centimeters in diameter) were dipped in the concentration under test for ten seconds, then fed to 2th & 4th larvae, which were roughly the same size and housed in glass jars (five pound). Each action carried out 3 times with ten larvae each. The mortality equalized via Abbott's formula. Calculations of mortality setback line were measurably rummage via probity analysis. Harmfulness index was strongminded via sun equations. The mortality results of larval insect were estimated through employing probit analysis through a statistics (LDP-line) equation which estimate the LC50 values with 95% fiducially limits of lower, upper confidence limit and slope.

aquatic insects = settings: cited from earlier work
[2] = read-out: LC50 (mg/L) at 95%, 2nd instar larvae, laboratory strain S. littoralis, after 72 hours of treatment
[3] = read-out: LC50 (mg/L) at 95%, 4th instar larvae, laboratory strain S. littoralis, after 72 hours of treatment

SMILES | activity against Spodoptera littoralis ([1]; 2nd and 4th instar larvae, FIGS. 1A-1B, compared with Fenoxycarb) | Toxicity index % ([1]; 2nd instar larvae) | Toxicity index % ([1]; 4th instar larvae) | LC50 [1, 2] | LC50 [1, 3] | LC50 (aquatic insects)
O=C(Nc1ccccc1)C1=CN=C(Nc2ccc(Cl)cc2)O/C(=N/c2ccccc2)O1 [Compound 2, (2E)-4-[(4-chlorophenyl)amino]-N-phenyl-2-(phenylimino)-1,3,5-dioxazepine-7-carboxamide] | active against Spodoptera littoralis | 10.31% | 23.54% | 57.6 mg/L (≈ 133 µM) | ~254 mg/L (≈ 588 µM) | –
CCOC(=O)NCCOc1ccc(Oc2ccccc2)cc1 [fenoxycarb, reference compound] | – | 100% | 100% | 5.94 mg/L (≈ 19.7 µM) | 59.9 mg/L (≈ 199 µM) | –
CCc1ccc(C(=O)NN(C(=O)c2cc(C)cc(C)c2)C(C)(C)C)cc1 [tebufenozide] | – | – | – | – | – | 100 to 1000 mg/L
